The experiment has as its target HPK1 (Homo sapiens (Human), UniProt Q92918). Nature of the experiment: HPK1 biochemical enzyme assay (microfluidic mobility shift assay). Particulars: 1.5 nM HPK1, ATP 1 mM final, 30 min preincubation, 60 min at RT, Caliper EZ Reader; read-out: HPK1 1000UMATP caliper IC50. Summed up:
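Mobility shift readout of HPK1 activity after a 60 min RT reaction with 1 mM ATP, 1 μM substrate and 5 mM MgCl2. Enzyme/substrate mix was first exposed to compounds for 30 min, using ten-point curves topping at 3 μM final.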
Sequence of HPK1 (Q92918 whole entry): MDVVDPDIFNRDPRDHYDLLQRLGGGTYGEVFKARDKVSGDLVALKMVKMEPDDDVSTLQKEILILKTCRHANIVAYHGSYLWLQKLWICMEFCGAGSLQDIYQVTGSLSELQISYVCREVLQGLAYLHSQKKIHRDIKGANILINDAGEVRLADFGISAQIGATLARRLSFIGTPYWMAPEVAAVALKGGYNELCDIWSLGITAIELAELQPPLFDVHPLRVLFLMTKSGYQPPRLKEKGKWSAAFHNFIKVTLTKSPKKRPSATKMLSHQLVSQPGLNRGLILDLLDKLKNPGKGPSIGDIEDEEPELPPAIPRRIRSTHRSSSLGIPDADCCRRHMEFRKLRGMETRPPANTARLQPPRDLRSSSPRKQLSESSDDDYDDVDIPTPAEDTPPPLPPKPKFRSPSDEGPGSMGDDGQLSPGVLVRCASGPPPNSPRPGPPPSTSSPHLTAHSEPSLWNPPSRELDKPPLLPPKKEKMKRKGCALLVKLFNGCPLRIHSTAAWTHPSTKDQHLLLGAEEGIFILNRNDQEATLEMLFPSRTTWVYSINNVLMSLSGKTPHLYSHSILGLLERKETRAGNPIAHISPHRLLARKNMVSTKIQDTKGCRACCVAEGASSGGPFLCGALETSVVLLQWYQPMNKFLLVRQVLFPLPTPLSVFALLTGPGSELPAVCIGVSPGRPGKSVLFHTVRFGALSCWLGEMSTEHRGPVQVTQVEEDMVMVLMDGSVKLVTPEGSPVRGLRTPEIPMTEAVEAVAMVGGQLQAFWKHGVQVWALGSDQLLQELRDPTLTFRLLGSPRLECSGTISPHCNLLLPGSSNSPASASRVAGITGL
For `CN1C[C@H](c2ccc(Nc3ccc(-c4cnc5cnccn45)c4c3C(=O)NC4)nc2)CC1=O` [I-331, (S)-4-(imidazo[1,2-a]pyrazin-3-yl)-7-((5-(1-methyl-5-oxopyrrolidin-3-yl)pyridin-2-yl)amino)isoin-dolin-1-one], the IC50 was < 0.1 µM.

As for `O=C1NCc2c(-c3cnc4cnccn34)ccc(Nc3ccc(N4CCC[C@H](O)CC4)cn3)c21` [I-328, (S)-7-((5-(4-hydroxyazepan-1-yl)pyridin-2-yl)amino)-4-(imidazo[1,2-a]pyrazin-3-yl)isoindolin-1-one], the half-inhibitory concentration (IC50) was < 0.1 µM.

As to `CC(C)(O)[C@@H]1COCCN(c2ccc(Nc3ccc(-c4cnc5cc(F)ccn45)c4c3C(=O)NC4)nc2)C1` [I-627, (S)-4-(7-fluoroimidazo [1,2-a]pyridin-3-yl)-7-((5-(6-(2-hydroxypropan-2-yl)-1,4-oxazepan-4-yl)pyridin-2-yl)amino)isoin-dolin-1-one], the IC50 is < 0.1 µM.

On to `Cn1ccc2c(-c3ccc(Nc4ccc(N5CC6CCC(C5)N6)cn4)c4c3CNC4=O)ccnc21` [I-70, 7-[[5-(3,8-diazabicyc1o [3,2.1]octan-3-yl)-2-pyridyl]amino]-4-(1-methylpyrrolo [2,3-b]pyridin-4-yl)isoindolin-1-one], for which the IC50 is < 0.1 µM.

For `Cc1ccn2c(-c3ccc(Nc4ccc(N5CCC[C@@H](O)C5)cn4)c4c3CNC4=O)cnc2c1` [I-172, 7-[[5-[(3R)-3-hydroxy-1-piperipyl]-2-pyridyl]amino]-4-(7-methylimidazo [1,2-a]pyridin-3-yl)isoindolin-1-one], the IC50 was < 0.1 µM.

As to `CN1CCN(c2ccc(Nc3ccc(-c4ccnc5c4ccn5CC(N)=O)c4c3C(=O)NC4)nc2)CC1` [I-269, 2-(4-(7-((5-(4-methylpiperazin-1-yl)pyridin-2-yl)amino)-1-oxoisoindolin-4-yl)-lH-pyrrolo[2.3-b]pyridin-1-yl)acctamide], the IC50 was < 0.1 µM.

Consider `CN(C)C(C)(C)C1CN(c2ccc(Nc3cnc(-c4ccnc5c4ccn5C)c4c3C(=O)NC4)nc2)CCO1` (centres unmarked) [I-668], for which the IC50 is < 0.1 µM.

Take `Cc1ccc2c(-c3ncc(Nc4ccc(N5CCN(C)CC5)cn4)c4c3CNC4=O)c[nH]c2c1` [I-8, 4-(6-methyl-1H-indol-3-yl)-7-[[5-(4-methylpiperazin-1-yl)-2-pyridyl]amino]-2,3-dihydropyrrolo [3,4-c]pyridin-1-one]: the half-inhibitory concentration (IC50) is 0.1 to 1 µM.

Regarding `COC[C@H]1CN(c2ccc(Nc3cnc(-c4ccnc5c4ccn5C)c4c3C(=O)NC4)nc2)CC[C@@H]1O` [I-414], the half-inhibitory concentration (IC50) was < 0.1 µM.

`CN1CCN(c2ccc(Nc3cnc(-c4cnc5c(F)cccn45)c4c3C(=O)NC4)nc2)CC1C(C)(C)O` (stereo in doubt) [I-622, (S)-4-(8-fluoroimidazo [1,2-a]pyridin-3-yl)-7-((5-(3-(2-hydroxypropan-2-yl)-4-methylpiperazin-1-yl)pyridin-2-yl)amino)-2.3-dihydro-1H-pyrrolo[3,4-c]pyridin-1-one]: the half-inhibitory concentration (IC50) is < 0.1 µM.

For the molecule `CN(C[C@@H]1CN(c2ccc(Nc3ccc(-c4cnc5cc(F)ccn45)c4c3C(=O)NC4)nc2)CCO1)C1CC1` [I-494, 7-[[5-[(2R)-2-[[cyclopropyl (methyl)amino]methyl]morph-olin-4-yl]-2-pyridyl]amino]-4-(7-fluoroimidazo [1,2-a]pyridin-yl)isoindolin-1-one], the IC50 was < 0.1 µM.

Consider `O=C1NCc2c(-c3cnc4ncccn34)ccc(Nc3ccc(N4CCNCC4)cn3)c21` [I-87, 4-imidazo[1,2-a]pyrimidin-3-yl-7-[(5-piperazin-1-yl-2-pyridyl)amino] isoindolin-1-one], for which the IC50 was < 0.1 µM.

As to `O=C1NCc2c(-c3cnc4cccnn34)ncc(Nc3ccc(N4CCC(O)CC4)cn3)c21` [I-199, 7-[[5-(4-hydroxy-1-piperidyl)-2-pyripyl]amino]-4-imidazo[1,2-b]pyridazin-3-yl-2,3-dihydropyrrolo [3,4-c]pyridin-1-one], the IC50 fell in the range of 0.1 to 1 µM.

Consider `O=C1NCc2c(-c3cnc4cc(F)ccn34)ccc(Nc3ccc(C4CCOC4)c(N4CCNCC4)n3)c21` (stereo in doubt) [I-773, (R)-4-(7-fluoroimidazo [1,2-a]pyridin-3-yl)-7-((6-(piperazin-1-yl)-5-(tetrahydrofuran-3-yl)pyridin-2-yl)amino)isoin-dolin-1-one], for which the IC50 is 0.1 to 1 µM.

Turning to `Cn1ccc2c(-c3ccc(Nc4cc(C5CCNCC5)n[nH]4)c4c3CNC4=O)ccnc21` [I-115, 4-(1-methylpyrrolo [2,3-b]pyridin-4-yl)-7-[[3-(4-piperidyl)-1H-pyrazol-5-yl]amino]isoin-dolin-1-one], the IC50 is < 0.1 µM.

Consider `CN1C[C@H]2CCN(c3cccc(Nc4cnc(-c5ccnc6c5ccn6C)c5c4C(=O)NC5)n3)[C@H]2C1` [I-631, 4-(1-methyl-1H-pyrrolo[2,3-b]pyridin-4-yl)-7-((6-((3aR,6aR)-5-methylhexahy-dropyrrolo[3,4-b]pyrrol-1(2H)-yl)pyridin-2-yl)amino)-2,3-dihydro-1H-pyrrolo[3,4-c]pyridin-1-one], for which the IC50 was > 1 µM.

On to `Cc1ccn2c(-c3ccc(Nc4ccc(N5CCC(O)(CN6CCN(C)CC6)CC5)cn4)c4c3CNC4=O)cnc2c1F` [I-444, 4-(8-fluoro-7-methylimidazo [1,2-a]pyridin-3-yl)-7-((5-(4-hydroxy-4-((4-methylpiperazin-1-yl)methyl)piper-idin-1-yl)pyridin-2-yl)amino)isoin-dolin-1-one], for which the IC50 was < 0.1 µM.

For the molecule `Cn1ccc2c(-c3ncc(Nc4cccc(N5CCC[C@@H](N)C5)n4)c4c3CNC4=O)ccnc21` [I-231, 7-[[6-[(3R)-3-amino-1-piperidyl]-2-pyridyl]-amino]-4-(1-methylpyrrolo [2,3-b]pyridin-4-yl)-2,3-dihydropyrrolo [3,4-c]pyridin-1-one], the IC50 is < 0.1 µM.

For the molecule `Cn1ncc(Nc2ccc(-c3cnc4cc(F)ccn34)c3c2C(=O)NC3)c1C1CCOCC1` [I-396], the IC50 is > 1 µM.

Take `CN[C@@H]1CCCN(c2ccc(Nc3ccc(-c4ccnc5c4ccn5C)c4c3C(=O)NC4)nc2)C1` [I-100, 7-[[5-[(3R)-3-(methviamino)-1-piperidyl]-2-pyridyl]amino]-4-(1-methylpyrrolo [2,3-b]pyridin-4-yl)isoindolin-1-one]: the IC50 is < 0.1 µM.

With `CN(C)Cc1nc(Nc2ccc(-c3cnc4cc(F)ccn34)c3c2C(=O)NC3)ccc1C1CCC1` [I-788, 7-((5-cyclobutyl-6-((dimethylamino)-methyl)pyri-din-2-yl)amino)-4-(7-fluoroimidazo [1,2-a]pyridin-3-yl)isoindolin-1-one], the IC50 was < 0.1 µM.

As for `CN(C)CC1(O)CCCN(c2ccc(Nc3ccc(-c4cnc5cc(F)ccn45)c4c3C(=O)NC4)nc2)C1` (centres unmarked) [I-385, 7-((5-(3-((dimethylamino)-methyl)-3-hydroxypiperidin-1-yl)pyridin-2-yl)amino)-4-(7-fluoroimidazo [1,2-a]pyridin-3-yl)isoindolin-1-one], the IC50 was < 0.1 µM.

Turning to `CC(C)([C@@H]1CN(c2ccc(Nc3ccc(-c4cnc5cc(F)ccn45)c4c3C(=O)NC4)nc2)CCO1)N1CC(O)C1` [I-697, (S)-4-(7-fluoroimidazo [1,2-a]pyridin-3-yl)-7-((5-(2-(2-(3-hydroxyazetidin-1-yl)propan-2-yl)morpholino)pyridin-2-yl)amino)isoin-dolin-1-one], the IC50 is < 0.1 µM.
